Laboratory results as given in ChEMBL document CHEMBL3399977, “Design, synthesis and preliminary bioactivity studies of 2-thioxo-4-thiazolidinone derivatives as Bcl-2 inhibitors” (Bioorg Med Chem, 2015).

Columns and labels:
[1] = molecular target: Apoptosis regulator Bcl-2 (Homo sapiens, UniProt P10415); assay: Inhibition of Bcl-2 (unknown origin) using 5-FAM-Bid-BH3 as substrate preincubated for 30 mins before substrate addition measured after 20 mins by fluorescence polarization technique
[2] = tested on: K562; assay: cells; settings: Homo sapiens, K562, 48 h
[3] = tested on: MDA-MB-231; assay: Antiproliferative activity against human MDA-MB-231 cells after 48 hrs by MTT assay; type: functional, cell-based; settings: MDA-MB-231, 48 h
[4] = cells; settings: Homo sapiens, PC-3, 48 h
[5] = molecular target: Induced myeloid leukemia cell differentiation protein Mcl-1 (Homo sapiens, UniProt Q07820); assay: Inhibition of Mcl-1 (unknown origin) using 5-FAM-Bid-BH3 as substrate preincubated for 30 mins before substrate addition measured after 20 mins by fluorescence polarization technique
Sequence of Induced myeloid leukemia cell differentiation protein Mcl-1 (Q07820 whole entry): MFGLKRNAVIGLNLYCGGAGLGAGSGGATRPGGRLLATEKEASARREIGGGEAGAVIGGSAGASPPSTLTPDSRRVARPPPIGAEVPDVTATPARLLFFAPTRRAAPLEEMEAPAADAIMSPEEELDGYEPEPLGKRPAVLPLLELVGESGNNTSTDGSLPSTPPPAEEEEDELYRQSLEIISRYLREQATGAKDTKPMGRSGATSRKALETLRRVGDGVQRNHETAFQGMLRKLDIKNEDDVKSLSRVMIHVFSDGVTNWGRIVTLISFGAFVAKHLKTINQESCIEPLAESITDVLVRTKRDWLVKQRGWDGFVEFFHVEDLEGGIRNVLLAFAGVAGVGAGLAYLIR

[6] = molecular target: Bcl-2-like protein 1 (Homo sapiens, UniProt Q07817); assay: Inhibition of Bcl-XL (unknown origin) using 5-FAM-Bid-BH3 as substrate preincubated for 30 mins before substrate addition measured after 20 mins by fluorescence polarization technique
Sequence of Bcl-2-like protein 1 (Q07817 whole entry): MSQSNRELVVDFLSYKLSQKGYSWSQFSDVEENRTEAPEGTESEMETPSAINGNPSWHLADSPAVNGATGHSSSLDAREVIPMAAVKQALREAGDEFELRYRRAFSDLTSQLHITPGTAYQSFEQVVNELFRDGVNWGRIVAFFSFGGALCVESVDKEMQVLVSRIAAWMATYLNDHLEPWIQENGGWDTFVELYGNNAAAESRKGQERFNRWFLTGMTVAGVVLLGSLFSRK

Sequence of Apoptosis regulator Bcl-2 (P10415 whole entry): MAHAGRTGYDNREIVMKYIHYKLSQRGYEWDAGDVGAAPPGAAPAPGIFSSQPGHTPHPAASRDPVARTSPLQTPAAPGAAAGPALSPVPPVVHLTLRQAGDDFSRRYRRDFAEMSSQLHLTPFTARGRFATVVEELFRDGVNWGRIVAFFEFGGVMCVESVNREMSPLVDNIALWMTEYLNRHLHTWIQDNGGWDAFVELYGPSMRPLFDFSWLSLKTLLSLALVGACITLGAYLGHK

Row | Ki [1] | SMILES | other results
1 | 0.73 µM | O=C(NS(=O)(=O)c1ccccc1)[C@H](Cc1c[nH]c2ccccc12)N1C(=O)/C(=C/c2ccc(-c3ccccc3)cc2)SC1=S | 
2 | 0.51 µM | O=C(NS(=O)(=O)c1ccc(Cl)cc1)[C@H](Cc1ccccc1)N1C(=O)/C(=C/c2ccc(-c3ccccc3)cc2)SC1=S | 
3 | 0.47 µM | O=C(NS(=O)(=O)c1ccccc1)[C@H](Cc1c[nH]c2ccccc12)N1C(=O)/C(=C/c2ccc(-c3ccc(Cl)cc3)cc2)SC1=S | 
4 | 0.75 µM | O=C(NS(=O)(=O)c1ccc([N+](=O)[O-])cc1)[C@H](Cc1c[nH]c2ccccc12)N1C(=O)/C(=C/c2ccc(-c3ccc(C(F)(F)F)cc3)cc2)SC1=S | 
5 |  | Cc1cc2c(C(C)C)c(O)c(O)c(C=O)c2c(O)c1-c1c(C)cc2c(C(C)C)c(O)c(O)c(C=O)c2c1O [GOSSYPOL] | IC50 [2]: 4.55 µM; IC50 [3]: 9.21 µM; IC50 [4]: 6.26 µM
6 | 0.72 µM | Cc1ccc(-c2ccc(/C=C3\SC(=S)N([C@@H](Cc4c[nH]c5ccccc45)C(=O)NS(=O)(=O)c4ccc([N+](=O)[O-])cc4)C3=O)cc2)cc1 | 
7 | 1.2 µM | O=C(NS(=O)(=O)c1ccc(Cl)c([N+](=O)[O-])c1)[C@H](Cc1ccc(Br)cc1)N1C(=O)/C(=C/c2ccc(-c3ccc(C(F)(F)F)cc3)cc2)SC1=S | 
8 | 1.4 µM | COC(=O)c1ccc(-c2ccc(/C=C3\SC(=S)N([C@@H](Cc4ccccc4)C(=O)NS(=O)(=O)c4ccc(Cl)c([N+](=O)[O-])c4)C3=O)cc2)cc1 | 
9 | > 50 µM | O=C(NS(=O)(=O)c1ccc(Cl)c([N+](=O)[O-])c1)[C@H](Cc1ccc(Br)cc1)N1C(=O)/C(=C/c2ccc(-c3ccc([N+](=O)[O-])cc3)cc2)SC1=S | 
10 | 0.45 µM | O=C(NS(=O)(=O)c1ccc([N+](=O)[O-])cc1)[C@H](Cc1ccccc1)N1C(=O)/C(=C/c2ccc(-c3ccccc3)cc2)SC1=S | 
11 | 0.71 µM | O=C(NS(=O)(=O)c1ccc([N+](=O)[O-])cc1)[C@H](Cc1ccc(Br)cc1)N1C(=O)/C(=C/c2ccc(-c3ccc(Cl)cc3)cc2)SC1=S | IC50 [2]: 9.44 µM; IC50 [3]: 28.6 µM; Ki [5]: 0.063 µM; Ki ([6]; read-out: Ki): 0.49 µM; IC50 [4]: 24.1 µM
12 | 0.68 µM | O=C(NS(=O)(=O)c1ccc([N+](=O)[O-])cc1)[C@H](Cc1c[nH]c2ccccc12)N1C(=O)/C(=C/c2ccc(-c3ccc(Cl)cc3)cc2)SC1=S | 
13 | 0.85 µM | O=C(NS(=O)(=O)c1ccc([N+](=O)[O-])cc1)[C@H](Cc1ccccc1)N1C(=O)/C(=C/c2ccc(-c3ccc(C(F)(F)F)cc3)cc2)SC1=S | 
14 | 2.4 µM | O=C(NS(=O)(=O)c1ccc(Cl)c([N+](=O)[O-])c1)[C@H](Cc1ccccc1)N1C(=O)/C(=C/c2ccc(-c3ccc([N+](=O)[O-])cc3)cc2)SC1=S | 
15 | 0.95 µM | CSCC[C@@H](C(=O)NS(=O)(=O)c1ccccc1)N1C(=O)/C(=C/c2ccc(-c3ccccc3)cc2)SC1=S | 
16 | 0.63 µM | CC(C)[C@@H](C(=O)NS(=O)(=O)c1ccccc1)N1C(=O)/C(=C/c2ccc(-c3ccccc3)cc2)SC1=S | 
17 | 0.66 µM | O=C(NS(=O)(=O)c1ccc([N+](=O)[O-])cc1)[C@H](Cc1ccccc1)N1C(=O)/C(=C/c2ccc(-c3ccc(Cl)cc3)cc2)SC1=S | 
18 | 0.9 µM | O=C(NS(=O)(=O)c1ccc([N+](=O)[O-])cc1)[C@H](Cc1ccc(Br)cc1)N1C(=O)/C(=C/c2ccc(-c3ccc(C(F)(F)F)cc3)cc2)SC1=S | 

Row | Ki [1] | SMILES | other results
19 | 1.9 µM | O=C(NS(=O)(=O)c1ccc(Cl)c([N+](=O)[O-])c1)[C@H](Cc1ccccc1)N1C(=O)/C(=C/c2ccc(-c3ccc(Cl)cc3)cc2)SC1=S | 
20 | 5.6 µM | O=C(NS(=O)(=O)c1ccc(Cl)c([N+](=O)[O-])c1)[C@H](Cc1c[nH]c2ccccc12)N1C(=O)/C(=C/c2ccc(-c3ccc(Cl)cc3)cc2)SC1=S | 
21 | 0.47 µM | O=C(NS(=O)(=O)c1ccccc1)[C@H](Cc1ccc(Br)cc1)N1C(=O)/C(=C/c2ccc(-c3ccc(Cl)cc3)cc2)SC1=S | IC50 [2]: 20.9 µM; IC50 [3]: 28.8 µM; Ki [5]: 0.066 µM; Ki ([6]; read-out: Ki): 0.39 µM; IC50 [4]: > 50 µM
22 | 0.46 µM | COC(=O)c1ccc(-c2ccc(/C=C3\SC(=S)N([C@@H](Cc4ccc(Br)cc4)C(=O)NS(=O)(=O)c4ccccc4)C3=O)cc2)cc1 | 
23 | 0.46 µM | O=C(NS(=O)(=O)c1ccccc1)[C@H](Cc1ccccc1)N1C(=O)/C(=C/c2ccc(-c3ccc([N+](=O)[O-])cc3)cc2)SC1=S | 
24 | 0.87 µM | O=C(NS(=O)(=O)c1ccc(Cl)c([N+](=O)[O-])c1)[C@H](Cc1ccccc1)N1C(=O)/C(=C/c2ccc(-c3ccc(C(F)(F)F)cc3)cc2)SC1=S | 
25 | 0.41 µM | CC[C@H](C)[C@@H](C(=O)NS(=O)(=O)c1ccccc1)N1C(=O)/C(=C/c2ccc(-c3ccccc3)cc2)SC1=S | 
26 | 2.4 µM | C[C@@H](C(=O)NS(=O)(=O)c1ccccc1)N1C(=O)/C(=C/c2ccc(-c3ccccc3)cc2)SC1=S | 
27 | 0.08 µM | O=C(NS(=O)(=O)c1ccc([N+](=O)[O-])cc1)[C@H](Cc1c[nH]c2ccccc12)N1C(=O)/C(=C/c2ccc(-c3ccc([N+](=O)[O-])cc3)cc2)SC1=S | 
28 | 0.7 µM | O=C(NS(=O)(=O)c1ccc(Cl)c([N+](=O)[O-])c1)[C@H](Cc1ccc(Br)cc1)N1C(=O)/C(=C/c2ccc(-c3ccc(Cl)cc3)cc2)SC1=S | 
29 | 0.54 µM | O=C(NS(=O)(=O)c1ccccc1)[C@H](Cc1c[nH]c2ccccc12)N1C(=O)/C(=C/c2ccc(-c3ccc([N+](=O)[O-])cc3)cc2)SC1=S | 
30 | 0.75 µM | O=C(NS(=O)(=O)c1ccc(Cl)c([N+](=O)[O-])c1)[C@H](Cc1c[nH]c2ccccc12)N1C(=O)/C(=C/c2ccc(-c3ccc([N+](=O)[O-])cc3)cc2)SC1=S | 
31 | 0.36 µM | O=C(NS(=O)(=O)c1ccc([N+](=O)[O-])cc1)[C@H](Cc1ccc(Br)cc1)N1C(=O)/C(=C/c2ccc(-c3ccc([N+](=O)[O-])cc3)cc2)SC1=S | IC50 [2]: 7.9 µM; IC50 [3]: 30.4 µM; Ki [5]: 0.074 µM; Ki [6]: Not Active; IC50 [4]: 40.7 µM
32 | 0.54 µM | O=C(NS(=O)(=O)c1ccc(Cl)c([N+](=O)[O-])c1)[C@H](Cc1ccccc1)N1C(=O)/C(=C/c2ccc(-c3ccccc3)cc2)SC1=S | 
33 | 0.8 µM | O=C(NS(=O)(=O)c1ccc([N+](=O)[O-])cc1)[C@H](Cc1ccccc1)N1C(=O)/C(=C/c2ccc(-c3ccc([N+](=O)[O-])cc3)cc2)SC1=S | 
34 | 0.52 µM | O=C(NS(=O)(=O)c1ccccc1)[C@H](Cc1ccc(Br)cc1)N1C(=O)/C(=C/c2ccc(-c3ccccc3)cc2)SC1=S | 
35 | 0.42 µM | O=C(NS(=O)(=O)c1ccccc1)[C@H](Cc1ccc(Br)cc1)N1C(=O)/C(=C/c2ccc(-c3ccc([N+](=O)[O-])cc3)cc2)SC1=S | IC50 [2]: > 50 µM; IC50 [3]: 46.1 µM; Ki [5]: 0.086 µM; Ki ([6]; read-out: Ki): 0.54 µM; IC50 [4]: > 50 µM

Row | SMILES | Ki [1] | other results
36 | Cc1ccc(S(=O)(=O)NC(=O)[C@H](Cc2ccccc2)N2C(=O)/C(=C/c3ccc(-c4ccccc4)cc3)SC2=S)cc1 | 0.72 µM | Ki [5]: 0.25 µM; Ki ([6]; read-out: Ki): 0.66 µM
